{"source": "paper PMC9864514", "about": "“Evaluation of the Local Anesthetic Activity, Acute Toxicity, and Structure–Toxicity Relationship in Series of Synthesized 1-Aryltetrahydroisoquinoline Alkaloid Derivatives In Vivo and In Silico” (Molecules, 2023)", "type_in_all_cases": "in vivo", "key": {"[1]": {"test": "Acute toxicity and resorptive action in white mice, intragastric administration", "conditions": "mouse, in vivo, po, intragastric administration, N = 10, Litchfield–Wilcoxon", "description": "(§1) The acute toxicity and resorptive action were determined in white mice weighing 20–24 g by gradual oral administration at doses of 1–5000 mg/kg.\n(§2) The animals were kept under standard nursery conditions with a natural 12-h light-dark cycle, at an air temperature of 20 ± 2 °C. The animals had unlimited access to food and water. The experiments were performed in accordance with the International Convention for the Protection of Vertebrate Animals used for Experimental and Scientific Purposes (Strasbourg, 1986). Each substance was tested on 10 mice and LD50 was determined graphically by the well-known Litchfield–Wilcoxon method."}, "[2]": {"test_system": "rabbit eye cornea", "test": "Local anesthetic activity, rabbit eye cornea terminal anesthesia test", "conditions": "rabbit corneal model; for Onset of Anesthesia / Total Duration of Anesthesia / Duration of Complete Anesthesia: 1% aqueous solution; for Duration of Complete Anesthesia: percentage of the anesthetic activity of lidocaine (=100%)", "description": "Local anesthetic activity was evaluated using the rabbit eye cornea terminal anesthesia test on 2.0–2.5 kg male chinchilla rabbits after introduction of total 0.4 mL (0.2 mL twice with an interval of 30 s) of 1.0 % solutions of the studied substances. Lidocaine was used as an etalon drug. Each substance was tested on three rabbits."}, "[3]": {"test_system": "white mice", "test": "Acute toxicity and resorptive action in white mice, intragastric administration", "conditions": "intragastric, relative to parent compound 3a", "description": "as §1, §2"}}, "data": [{"smiles": "COc1cc2c(cc1OC)C(c1ccccc1)NCC2", "note": "(stereo not drawn) [Compound 3a, 1-(Phenyl)-6,7-dimethoxy-1,2,3,4-tetrahydroisoquinoline]", "values": [{"measurement": "LD50", "setting": "[1]", "result": 280, "unit": "mg/kg"}, {"measurement": "Onset of Anesthesia", "setting": "[2]", "result": "3.0 ± 1.1", "unit": "min"}, {"measurement": "Total Duration of Anesthesia", "setting": "[2]", "result": "53.0 ± 4.6", "unit": "min"}, {"measurement": "Duration of Complete Anesthesia", "setting": "[2]", "result": "+50%"}]}, {"smiles": "COc1cc2c(cc1OC)C(c1ccccc1O)NCC2", "note": "(stereo not drawn) [Compound 3b, 1-(2′-Hydroxyphenyl)-6,7-dimethoxy-1,2,3,4-tetrahydroisoquinoline]", "values": [{"measurement": "LD50", "setting": "[1]", "result": 375, "unit": "mg/kg"}, {"measurement": "Decrease of acute toxicity compared with 3a", "setting": "[3]", "result": "did not result in a significant decrease of toxicity"}, {"measurement": "Onset of Anesthesia", "setting": "[2]", "result": "1.0 ± 0.4", "unit": "min"}, {"measurement": "Total Duration of Anesthesia", "setting": "[2]", "result": "44.0 ± 1.5", "unit": "min"}, {"measurement": "Duration of Complete Anesthesia", "setting": "[2]", "result": "+50%"}]}, {"smiles": "COc1ccc(C2NCCc3cc(OC)c(OC)cc32)cc1O", "note": "(stereo not drawn) [Compound 3c, 1-(3′-Hydroxy-4′-methoxyphenyl)-6,7-dimethoxy-1,2,3,4-tetrahydroisoquinoline]", "values": [{"measurement": "LD50", "setting": "[1]", "result": 980, "unit": "mg/kg"}, {"measurement": "Decrease of acute toxicity compared with 3a", "setting": "[3]", "result": 3.5, "unit": "fold"}, {"measurement": "Onset of Anesthesia", "setting": "[2]", "result": "3.0 ± 0.8", "unit": "min"}, {"measurement": "Total Duration of Anesthesia", "setting": "[2]", "result": "70.0 ± 4.5", "unit": "min"}, {"measurement": "Duration of Complete Anesthesia", "setting": "[2]", "result": "+40%"}]}, {"smiles": "COc1ccc(C2NCCc3cc(OC)c(OC)cc32)cc1OC", "note": "(stereo not drawn) [Compound 3d, 1-(3′,4′-Dimethoxyphenyl)-6,7-dimethoxy-1,2,3,4-tetrahydroisoquinoline]", "values": [{"measurement": "LD50", "setting": "[1]", "result": 670, "unit": "mg/kg"}, {"measurement": "Decrease of acute toxicity compared with 3a", "setting": "[3]", "result": "2.5–2.6 fold"}, {"measurement": "Onset of Anesthesia", "setting": "[2]", "result": "2.0 ± 0.7", "unit": "min"}, {"measurement": "Total Duration of Anesthesia", "setting": "[2]", "result": "70.0 ± 2.1", "unit": "min"}, {"measurement": "Duration of Complete Anesthesia", "setting": "[2]", "result": "+60%"}]}, {"smiles": "COc1cc2c(cc1OC)C(c1ccc(O)c(Br)c1)NCC2", "note": "(stereo not drawn) [Compound 3e, 1-(3′-Bromo-4′-hydroxyphenyl)-6,7-dimethoxy-1,2,3,4-tetrahydroisoquinoline]", "values": [{"measurement": "LD50", "setting": "[1]", "result": 3850, "unit": "mg/kg"}, {"measurement": "Decrease of acute toxicity compared with 3a", "setting": "[3]", "result": 13.75, "unit": "fold"}, {"measurement": "Onset of Anesthesia", "setting": "[2]", "result": "5.0 ± 0.9", "unit": "min"}, {"measurement": "Total Duration of Anesthesia", "setting": "[2]", "result": "80.0 ± 3.2", "unit": "min"}, {"measurement": "Duration of Complete Anesthesia", "setting": "[2]", "result": "+49%"}]}, {"smiles": "COc1cc2c(cc1OC)C(c1cc(Br)ccc1O)NCC2", "note": "(stereo not drawn) [Compound 3f, 1-(5′-Bromo-2′-hydroxyphenyl)-6,7-dimethoxy-1,2,3,4-tetrahydroisoquinoline]", "values": [{"measurement": "LD50", "setting": "[1]", "result": 305, "unit": "mg/kg"}, {"measurement": "Decrease of acute toxicity compared with 3a", "setting": "[3]", "result": "did not result in a significant decrease of toxicity"}, {"measurement": "Onset of Anesthesia", "setting": "[2]", "result": "1.0 ± 0.5", "unit": "min"}, {"measurement": "Total Duration of Anesthesia", "setting": "[2]", "result": "64.0 ± 3.8", "unit": "min"}, {"measurement": "Duration of complete anesthesia, times longer than lidocaine", "setting": "[2]; 1% concentration", "result": 1.6, "unit": "times"}]}, {"smiles": "COc1cc2c(cc1OC)C(c1ccc([N+](=O)[O-])cc1)NCC2", "note": "(stereo not drawn) [Compound 3m, 1-(4′-Nitrophenyl)-6,7-dimethoxy-1,2,3,4-tetrahydroisoquinoline]", "values": [{"measurement": "LD50", "setting": "[1]", "result": 1950, "unit": "mg/kg"}, {"measurement": "Onset of Anesthesia", "setting": "[2]", "result": "3.0 ± 0.4", "unit": "min"}, {"measurement": "Total Duration of Anesthesia", "setting": "[2]", "result": "48.0 ± 2.8", "unit": "min"}, {"measurement": "Duration of Complete Anesthesia", "setting": "[2]", "result": "+80%"}]}, {"smiles": "COc1cc2c(cc1OC)C(c1cccc(N)c1)NCC2", "note": "(stereo not drawn) [Compound 4b, 1-(3′-Aminophenyl)-6,7-dimethoxy-1,2,3,4-tetrahydroisoquinoline]", "values": [{"measurement": "LD50", "setting": "[1]", "result": 750, "unit": "mg/kg"}, {"measurement": "Onset of Anesthesia", "setting": "[2]", "result": "3.0 ± 0.7", "unit": "min"}, {"measurement": "Total Duration of Anesthesia", "setting": "[2]", "result": "44.0 ± 4.1", "unit": "min"}, {"measurement": "Duration of Complete Anesthesia", "setting": "[2]", "result": "+0%"}]}, {"smiles": "CCN(CC)CC(=O)Nc1c(C)cccc1C", "note": "[Lidocaine, reference compound]", "values": [{"measurement": "Onset of Anesthesia", "setting": "[2]", "result": "5.0 ± 0.5", "unit": "min"}, {"measurement": "Total Duration of Anesthesia", "setting": "[2]", "result": "52.7 ± 4.9", "unit": "min"}]}]}
